In patent US12083093B2, “Composition for preventing or treating cellular senescence-related diseases comprising salinomycin as effective component” (RESEARCH COOPERATION FOUNDATION OF YEUNGNAM UNIVERSITY, priority 2018, dated 2024):

Tests used:
[1] = system: renal fibrosis induced by renal ischemia-reperfusion injury; format: in vivo, C57BL/6J mice; details: compared to PBS group
Protocol: Animal experiments were performed with the approval of the Animal Experimental Ethics Committee, Yeungnam University College of Medicine (YUMC-AEC2018-024). C57BL/6J 8-week-old male mice were anesthetized by intraperitoneal injection of 2.5% Avertin (0.025 ml/g body weight). The mouse was placed on a hot plate at 37° C., and the left flank was incised to expose the left kidney. The renal arteriovenous blood vessels were ligated with a microaneurism clamp (Roboz), and whether the blood vessels were blocked or not was confirmed by the color of the kidneys. During the induction of ischemia, the body temperature of the mice was maintained at 36.5-37.5° C. After 35 minutes, the clamp was removed and it was confirmed that reperfusion occurred.
As a control, renal arteriovenous vessels were not ligated, and the rest was performed in the same manner as above. From 4 days after ischemia-reperfusion injury, 2.5 μl of 10 mM salinomycin was diluted in 100 μl of phosphate buffer solution at intervals of 2 days and injected into the abdominal cavity 3 times (Sal group). […] Three mice were used for each group.
The left kidney in which ischemia-reperfusion injury was induced, was excised in half and fixed in 10% formalin solution or stored frozen in liquid nitrogen.
In order to evaluate kidney function due to ischemia-reperfusion injury, creatinine and blood urea nitrogen (BUN) concentrations in plasma and urine were measured.
Blood was collected from the retro-orbital vascular plexus of the mouse using a heparin capillary tube, and plasma was separated. Plasma creatinine was measured by QuantiChrom™ creatinine assay kit (DICT-500; BioAssay Systems, Hayward, CA, USA), and BUN was investigated by measuring absorbance at 490 nm and 450 nm by a spectrophotometer, respectively by BUN colorimetric detection kit (Arbor Assays, Ann Arbor, Michigan, USA). […]
RIPA buffer was added to the tissue and pulverized with WiseTis homogenizer HG-15D (DAIHAN Scientific, Seoul, South Korea). Centrifugation was performed at 12,000 rpm at 4° C. for 20 minutes, and the supernatant was transferred to a new tube. The protein concentration of the supernatant was quantified by the BCA method.
After electrophoresis (SDS-PAGE) of 30 μg of protein, Western blot analysis was performed. After electrophoresis, the protein was transferred from the gel to a polyvinylidene fluoride membrane (Pall Corporation). The membrane was treated with a 5% Difco™ skim milk solution (Becton, Dickinson and Company, USA) for 2 hours at room temperature, and the primary antibody was added, followed by reaction at room temperature for 2 hours.
As the primary antibody, anti-p53 antibody, anti-p16 antibody, anti-actin antibody and anti-GAPDH antibody were purchased from Santa Cruz Biotechnology, Inc. Anti-phosphorylated-Rb antibody was obtained from New England Biolabs (Ipswich, MA, USA), and the anti-SOD2 antibody and anti-catalase antibody were obtained from Bioworld Technology Inc. (Louis Park, MN, USA), anti-HNE antibody, anti-α-smooth muscle actin antibody, and anti-type I collagen antibody were purchased from Abcam (Cambridge, UK).
The tissue fixed in 10% formalin solution was embedded with paraffin and cut into 4 μm to prepare a tissue sample. After removing paraffin from the tissue sample, hematoxylin-eosin staining, trichrome staining, and PAS staining were performed.
The degree of fibrosis was measured by analyzing the degree of collagen staining using the i-Solution™ software program (IMT Inc., Canada) after trichrome staining and the degree of cell senescence in tissue samples was investigated by staining lipofuscin with Sudan black B (Viegas M S, et al., European journal of histochemistry: EJH. 2007). The degree of peritoneal fibrosis was confirmed by measuring the submesothelial thickness of the peritoneal mesothelial cell layer using the NIH Image J program. […]

[2] = system: replicative senescent vascular endothelial cells (HUVEC); assay: SAβG activity staining, replicative senescent HUVEC; format: cell-based, human; details: salinomycin treatment, 4 days; FIG. 4A, 4B
Protocol: After dispensing 2×10^5 cells in a 100 mm culture dish, they were cultured in a 37° C., 5% CO2 incubator. When the cells grew to 80-90% in the culture dish, the cells were removed by treatment with trypsin-EDTA, and the number of cells was measured, and the cell population doubling time (PDT) was measured.
By successively subculturing the cells in the same process as described above, replication aging was induced. PDT of young fibroblasts was 36 hours, PDT of replicative senescent fibroblasts was 12 days, PDT of young vascular endothelial cells was 24 hours, and PDT of replicative senescent vascular endothelial cells was 7 days.
After each sample was dissolved in DMSO, young cells, replicative senescent cells and senescent cells in which premature aging was induced by treating with doxorubicin were treated with 100 nM salinomycin, 100 nM rapamycin, 100 nM ABT263. After incubation for 4 days in a 37° C., 5% CO2 incubator, the degree of cell survival was confirmed by CCK-8 analysis, the degree of cellular aging was confirmed by senescence-associated β-galactosidase (SAβG) staining, p53 and p16 protein expression analysis.
The cells were washed with 1× phosphate buffer solution, and fixed with a phosphate buffer solution containing 3.7% (v/v) paraformaldehyde. […]

[3] = kidney tissue, antioxidant enzyme
[4] = kidney tissue, fibrosis marker, FIG. 7L, 7M

SMILES: CC[C@@H](C(=O)[C@@H](C)[C@@H](O)[C@H](C)[C@@H]1O[C@@H]([C@@H](CC)C(=O)O)CC[C@@H]1C)[C@H]1O[C@]2(C=C[C@@H](O)[C@]3(CC[C@@](C)([C@H]4CC[C@](O)(CC)[C@H](C)O4)O3)O2)[C@H](C)C[C@@H]1C [salinomycin]
- plasma creatinine ([1]; i.p. 3 times at 2-day intervals from day 4, FIG. 7C): decreased
- plasma BUN ([1]; i.p. 3 times at 2-day intervals from day 4, FIG. 7D): decreased
- expression of SOD2 (Western blot) [1, 3]: increased
- expression of catalase (Western blot) [1, 3]: increased
- expression of pRb (Western blot) ([1]; kidney tissue, cell proliferation marker, FIG. 7L, 7M): decreased
- expression of p16 (Western blot) ([1]; kidney tissue, cellular aging marker, FIG. 7K): marked decrease
- expression of p53 (Western blot) ([1]; kidney tissue, cellular aging marker, FIG. 7L, 7M): decreased
- Sudan Black B (lipofuscin) staining intensity ([1]; kidney tissue, cellular senescence, FIG. 7G): decreased
- expression of type 1 collagen (COL1) (Western blot) [1, 4]: decreased
- expression of α-SMA (Western blot) [1, 4]: decreased
- expression of 4-HNE (Western blot) ([1]; kidney tissue, oxidative stress marker, FIG. 7K): marked decrease
- lipid peroxides in tissue ([1]; kidney tissue, FIG. 7H): significantly reduced
- MDA in tissue ([1]; kidney tissue, FIG. 7I): significantly reduced
- superoxides in tissue ([1]; kidney tissue, FIG. 7J): decreased
- degree of tissue fibrosis by trichrome staining ([1]; kidney, FIG. 7E, 7F): significantly reduced
- damage to the renal tubules ([1]; renal tissue specimen, FIG. 7E, 7F): significantly reduced
- SAβG activity [2]: decreased
